According to patent publication US9844536B2, “3-(1H-imidazo[4,5-C]pyridin-2-yl)-1H-pyrazolo[3,4-C]pyridine and therapeutic uses thereof” (Samumed, LLC, priority 2014, dated 2017):

Key:
Assay type in all cases: cell-based
[1] = system: primary human mesenchymal stem cells (hMSCs); experiment: Chondrogenesis induction screen in primary human mesenchymal stem cells (nodules, Rhodamine B/Nile Red); settings: 144 h, 6 days; for EC (100% TGF-beta3 activity): concentration required to induce chondrogenesis equivalent to TGF-β3 (10 ng/mL), read-out: Conc (nM) of 100% TGF-β3 activity; for Emax: relative to TGF-β3 (10 ng/mL) positive control, read-out: Max. Activity as % TGF-β3 activity
Protocol: The above synthesized compounds were screened using primary human mesenchymal stem cells (hMSCs) to determine their ability to induce chondrogenesis (process by which cartilage is developed).
Primary human mesenchymal stem cells (hMSCs) were purchased from Lonza (Walkersville, Md.) and expanded in Mesenchymal Stem Cell Growth Media (Lonza). Cells between passage 3 and 6 were used for the experiments.
Each compound was dissolved in DMSO as a 10 mM stock and used to prepare compound source plates. Serial dilution (1:3, 6-point dose-response curves from 2700 nM to 10 nM) and compound transfer was performed using the ECHO 550 (Labcyte, Sunnyvale, Calif.) into 96-well clear bottom assay plates (Greiner Bio-One) with appropriate DMSO backfill for a final DMSO concentration of 0.03%. hMSCs were plated at 20,000 cells/well in 250 μL/well Incomplete Chondrogenic Induction Medium (Lonza; DMEM, dexamethasone, ascorbate, insulin-transferrin-selenium [ITS supplement], gentamycin-amphotericin [GA-1000], sodium pyruvate, proline and L-glutamine). TGF-β3 (10 ng/mL) was used as a positive control for differentiation while negative control wells were treated with 75 nL DMSO for normalization and calculating EC50 values. Cells were incubated at 37° C. and 5% CO2 for 6 days. To image chondrogenic nodules, the cells were fixed using 4% formaldehyde (Electron Microscopy Sciences), and stained with 2 μg/mL Rhodamine B (Sigma-Aldrich) and 20 μM Nile Red (Sigma-Aldrich) [Johnson K., et. al, A Stem Cell-Based Approach to Cartilage Repair, Science, (2012), 336(6082), 717-721]. The nodules imaged (4 images per well at 4× magnification) by excitation at 531 nm and emission at 625 nm and quantified using the CellInsight CX5 (Thermo Scientific). Number of nodules in each well was normalized to the average of 3 DMSO treated wells on the same plate using Excel (Microsoft Inc.). The normalized averages (fold change over DMSO) of 3 replicate wells for each compound concentration were calculated. Due to solubility limitations of some of the compounds, curve fitting was incomplete leading to inaccurate EC50 determinations.
Using TGF-03 as a positive control, the concentration of test compounds required to induce equivalent levels of chondrogenesis is reported. In addition, the maximum activity of each compound and the respective dose that each compound reached maximum chondrogenesis activity is reported.

[2] = system: LL29 cells; experiment: Inhibition of the fibrotic process (αSMA staining) in TGF-β1 treated primary human fibroblasts from IPF patients; settings: Fibroblast, 96 h, TGF-β1 20 ng/mL, 4 days, dose-response 10 μM to 1.87 nM, read-out: Inhibition of fibrosis EC50
How it was run: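 LL29 IPF lung fibroblasts in 1% FBS were stimulated with TGF-β1 (20 ng/mL) and treated 4 days at 37 °C with compound (11 points, 10 μM–1.87 nM, 0.1% DMSO). The % αSMA-positive cells, imaged after excluding SYTOX-positive dead cells, was normalized to TGF-β1/DMSO wells. EC50 came from nonlinear regression over triplicates.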

[3] = system: Wnt pathway (Sp5-Luc reporter, SW480 cells); experiment: Sp5-Luc reporter gene screening assay for Wnt activity in SW480 colon carcinoma cells; settings: Homo sapiens
How it was run: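 IC50 values come from variable-slope four-parameter fits of luciferase signal normalized to DMSO wells. Stable Sp5-Luc reporter SW480 colon carcinoma cells were exposed to compounds in a 3-fold dilution series (source plates from 10 mM stock) for forty-two hours at 37 °C.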

[4] = system: ARPE-19 cells; experiment: Transdifferentiation of ARPE-19 cells into eye neuronal cells [photoreceptors], PAX6 staining; settings: Homo sapiens, fixed at 40 hours, PAX6 antibody staining, normalized to DMSO
Protocol: The above synthesized compounds were screened using ARPE-19 cells [a spontaneously arising retinal pigment epithelia (RPE) cell line] to determine their ability to transdifferentiate ARPE-19 into eye neuronal cells [photoreceptors].
ARPE-19 cells are cultured in standard culture medium containing Dulbecco's Modified Eagle's Medium and Ham's F12 Nutrient Mixture (DMEM/F12) mix (1:1)+GlutaMax with 1% penicillin-Streptomycin and 10% FBS (Fetal Bovine Serum). Cells are incubated at 37° C. with 5% CO2. Cells are trypsinized and plated onto 384-well pre-spotted plate at a density of 3000 cells/well in 50 uL of media. Plating media: DMEM/F12 (1:1)+3% charcoal filtered-FBS+GlutaMax+1% pen/Strep. Cells are incubated at 37° C. with 5% CO2. At 40 hours, cells were fixed for 15 min with 10% Buffered Formalin. Cells were then washed 3 times with PBS for 5 min each, permeablize using 0.3% Triton X-100 in 1×PBS for 30 min, block for 1 hr with 2% BSA in 1×PBS with 0.1% Triton X-100. The primary antibody (1:100 PAX6 Santa Cruz Biotech; sc-81649) was diluted and 10 μL/well was added to the cells. The cells were incubated overnight at 4° C. […] Readings were normalized to DMSO only treated cells, and normalized activities were utilized for EC50 calculations using the dose-response log (activator) vs. response-variable slope (four parameters) nonlinear regression feature available in GraphPad Prism 5.0 or 6.0.

Compound	IC50 [3] [nM]	EC (100% TGF-beta3 activity) [1] [nM]	Emax [1] [%]	EC50 [2] [nM]	EC50 [4] [nM]
CC(=O)c1ccc(-c2nccc3[nH]c(-c4n[nH]c5cnc(-c6cccnc6)cc45)nc23)s1 [Compound 394, 1-(5-(2-(5-(Pyridin-3-yl)-1H-pyrazolo[3,4-c]pyridin-3-yl)-1H-imidazo[4,5-c]pyridin-4-yl)thiophen-2-yl)ethan-1-one]	5.5	142	10	14	–
Cc1ccncc1-c1cc2c(-c3nc4c(-c5cc(F)cc(CNS(C)(=O)=O)c5)nccc4[nH]3)n[nH]c2cn1 [Compound 421, N-(3-Fluoro-5-(2-(5-(4-methylpyridin-3-yl)-1H-pyrazolo[3,4-c]pyridin-3-yl)-1H-imidazo[4,5-c]pyridin-4-yl)benzyl)methanesulfonamide]	9.9	122	10	> 10000	–
NC1CN(c2cncc(-c3cc4c(-c5nc6c(-c7cccc(F)c7)nccc6[nH]5)n[nH]c4cn3)n2)C1 [Compound 942, 1-(6-(3-(4-(3-Fluorophenyl)-1H-imidazo[4,5-c]pyridin-2-yl)-1H-pyrazolo[3,4-c]pyridin-5-yl)pyrazin-2-yl)azetidin-3-amine]	46	–	–	303	5

Second part, led by results:

IC50 [3] [nM]	Compound	EC (100% TGF-beta3 activity) [1] [nM]	Emax [1] [%]	EC50 [2] [nM]	EC50 [4] [nM]
10	Cn1cc(-c2cc3c(-c4nc5c(-c6cccc(F)c6)nccc5[nH]4)n[nH]c3cn2)cn1 [Compound 940, 3-(4-(3-Fluorophenyl)-1H-imidazo[4,5-c]pyridin-2-yl)-5-(1-methyl-1H-pyrazol-4-yl)-1H-pyrazolo[3,4-c]pyridine]	110	100	≤ 9	–
99	CN(C)CCOc1cncc(-c2cc3c(-c4nc5c(-c6cccc(F)c6)nccc5[nH]4)n[nH]c3cn2)c1 [Compound 947, 2-((5-(3-(4-(3-Fluorophenyl)-1H-imidazo[4,5-c]pyridin-2-yl)-1H-pyrazolo [3,4-c]pyridin-5-yl)pyridin-3-yl)oxy)-N,N-dimethylethan-1-amine]	–	–	484	35
10	COc1cncc(-c2cc3c(-c4nc5c(-c6cccc(F)c6)nccc5[nH]4)n[nH]c3cn2)c1 [Compound 948, 3-(4-(3-Fluorophenyl)-1H-imidazo[4,5-c]pyridin-2-yl)-5-(5-methoxypyridin-3-yl)-1H-pyrazolo[3,4-c]pyridine]	174	900	≤ 9	–
